Experimental data reported in patent US10519108B2, “Inhibitors of retinaldehyde dehydrogenases and methods of use” (The Board of Regents of the University of Oklahoma, priority 2015, dated 2019).

What was measured:
[1] = target: T1, aldehyde dehydrogenase 2 (ALDH2) (Homo sapiens, UniProt P05091); assay: ALDH2 activity by NADH synthesis, absorbance at 340 nm; type: biochemical
T1 sequence (P05091 18-517): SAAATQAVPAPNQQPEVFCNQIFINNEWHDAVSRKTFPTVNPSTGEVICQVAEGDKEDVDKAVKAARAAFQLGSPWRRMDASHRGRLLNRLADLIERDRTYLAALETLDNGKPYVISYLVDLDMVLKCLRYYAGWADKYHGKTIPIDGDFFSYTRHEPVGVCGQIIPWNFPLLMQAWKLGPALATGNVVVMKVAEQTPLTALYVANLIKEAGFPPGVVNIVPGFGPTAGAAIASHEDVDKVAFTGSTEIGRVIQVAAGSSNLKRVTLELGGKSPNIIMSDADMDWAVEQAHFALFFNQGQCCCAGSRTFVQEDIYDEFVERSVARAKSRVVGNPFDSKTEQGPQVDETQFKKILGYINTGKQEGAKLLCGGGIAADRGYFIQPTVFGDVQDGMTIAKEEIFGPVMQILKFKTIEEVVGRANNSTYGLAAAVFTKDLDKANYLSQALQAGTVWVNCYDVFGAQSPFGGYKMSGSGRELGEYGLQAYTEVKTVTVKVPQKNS

spermatogenesis = settings: cited from earlier work
RALDH3 = target: T2, RALDH3 (Homo sapiens, UniProt P47895); assay: RALDH3 activity by NADH synthesis, fluorescence-based NADH sensor; type: biochemical; settings: in the presence of DAR
T2 sequence (P47895 1-512): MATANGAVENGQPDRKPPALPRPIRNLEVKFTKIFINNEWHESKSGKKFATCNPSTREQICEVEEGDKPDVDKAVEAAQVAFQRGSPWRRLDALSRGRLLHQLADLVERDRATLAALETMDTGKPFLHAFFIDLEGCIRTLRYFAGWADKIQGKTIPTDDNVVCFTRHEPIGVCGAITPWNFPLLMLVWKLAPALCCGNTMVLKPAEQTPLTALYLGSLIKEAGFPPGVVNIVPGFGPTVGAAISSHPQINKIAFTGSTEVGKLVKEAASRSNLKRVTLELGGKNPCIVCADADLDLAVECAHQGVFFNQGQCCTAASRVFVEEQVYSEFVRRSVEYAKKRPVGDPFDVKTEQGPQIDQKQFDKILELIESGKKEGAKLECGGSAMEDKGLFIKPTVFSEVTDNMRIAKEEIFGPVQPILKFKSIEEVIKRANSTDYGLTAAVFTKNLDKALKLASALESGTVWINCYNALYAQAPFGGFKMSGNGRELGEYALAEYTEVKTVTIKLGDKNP

RALDH2 = target: T3, RALDH2 (Homo sapiens, UniProt O94788); assay: RALDH2 activity by NADH synthesis, fluorescence-based NADH sensor; type: biochemical
T3 sequence (O94788 1-518): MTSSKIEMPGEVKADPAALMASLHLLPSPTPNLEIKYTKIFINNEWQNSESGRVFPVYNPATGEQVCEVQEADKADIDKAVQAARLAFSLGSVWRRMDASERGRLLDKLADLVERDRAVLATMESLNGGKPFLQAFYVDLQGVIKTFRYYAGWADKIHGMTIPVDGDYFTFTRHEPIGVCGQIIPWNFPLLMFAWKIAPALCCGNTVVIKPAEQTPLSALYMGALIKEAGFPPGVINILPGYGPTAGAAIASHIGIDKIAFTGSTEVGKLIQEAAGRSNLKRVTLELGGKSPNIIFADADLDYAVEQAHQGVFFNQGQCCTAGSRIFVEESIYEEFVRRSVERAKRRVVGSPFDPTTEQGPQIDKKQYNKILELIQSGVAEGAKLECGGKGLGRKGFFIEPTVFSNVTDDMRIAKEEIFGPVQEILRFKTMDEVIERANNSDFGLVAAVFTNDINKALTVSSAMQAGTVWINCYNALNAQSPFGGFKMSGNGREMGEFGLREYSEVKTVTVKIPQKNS

[2] = target: T4, retinaldehyde dehydrogenase 1 (RALDH1) (Homo sapiens, UniProt P00352); assay: RALDH1 activity by NADH synthesis, fluorescence-based NADH sensor; type: biochemical; settings: in the presence of DAR
T4 sequence (P00352 1-501): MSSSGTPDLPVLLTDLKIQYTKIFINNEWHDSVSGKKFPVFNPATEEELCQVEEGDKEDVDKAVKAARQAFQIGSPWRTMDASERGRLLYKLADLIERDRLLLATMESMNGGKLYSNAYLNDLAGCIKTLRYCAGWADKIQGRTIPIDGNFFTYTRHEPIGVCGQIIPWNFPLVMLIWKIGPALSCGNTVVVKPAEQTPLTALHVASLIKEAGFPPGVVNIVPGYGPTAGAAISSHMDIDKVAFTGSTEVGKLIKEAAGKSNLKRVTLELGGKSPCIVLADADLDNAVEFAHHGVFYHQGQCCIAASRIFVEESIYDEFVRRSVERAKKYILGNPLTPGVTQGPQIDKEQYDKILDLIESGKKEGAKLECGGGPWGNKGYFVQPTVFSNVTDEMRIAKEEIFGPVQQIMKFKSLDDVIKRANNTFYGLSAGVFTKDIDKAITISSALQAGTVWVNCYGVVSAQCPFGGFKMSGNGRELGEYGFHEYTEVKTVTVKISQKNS

RALDH = RALDH activity in recovering choroid tissue homogenates, atRA synthesis by HPLC; type: biochemical; settings: choroid cytosol fractions, DAR 5-25 μM, NAD 4 mM, all-trans-retinaldehyde 25 μM, 37° C. 30 min
Method: RALDH activity was assessed in choroid tissue homogenates in the presence of DAR (5-25 μM), or vehicle (EtOH) by measuring all-trans-retinoic acid (atRA) synthesis. Choroid cytosol fractions were incubated in the presence of cofactor NAD (4 mM) and all-trans-retinaldehyde (25 μM) at 37° C. for 30 min. Following incubation, retinoids were extracted and quantified using HPLC.

Row | activity of RALDH3 assessed by NADH synthesis (RALDH3) | IC50 (RALDH2; NADH synthesis, 95% C.I.=41.0-66.4 nM) [nM] | activity of RALDH2 assessed by NADH synthesis (RALDH2; in the presence of DAR, fluorescence-based NADH sensor) | activity of RALDH1 assessed by NADH synthesis [2] | Compound | effect on ALDH2 assessed by NADH synthesis [1] | inhibition of spermatogenesis (spermatogenesis; human males) | reactions in patients who consumed alcohol (spermatogenesis; human, alcohol consumed while taking compound, due to inhibition of ALDH2) | retinoic acid (atRA) synthesis by RALDH (RALDH)
1 |  |  |  |  | O=C(NCCCCCCCCNC(=O)C(Cl)Cl)C(Cl)Cl [WIN-18446] | non-specific ALDH2 inhibitor | potent, reversible inhibitor of spermatogenesis | violent “disulfiram” reactions | 
2 | effectively inhibits | 52.2 | effectively inhibits | effectively inhibits | CC1=C(/C=C/C(C)=C/C=C/C(C)=C/C(=O)C(Cl)Cl)C(C)(C)CCC1 [DAR, (3E,5E,7E,9E)-1,1-dichloro-4,8-dimethyl-10-(2,6,6-trimethylcyclohex-1-en-1-yl)deca-3,5,7,9-tetraen-2-one] | does not significantly inhibit |  |  | significantly inhibited
